Data set [1] deals with HeLa. The data set can be described thus: Anticancer activity against human HeLa cells assessed as inhibition of cell growth incubated for 48 hrs by MTT assay. Format: functional, cell-based.
The nature of data set [2]: Cytotoxicity against human LO2 cells assessed as reduction in cell viability incubated for 48 hrs by MTT assay. Format: toxicity, cell-based, L02.
Data set [3] concerns MGC-803. Put plainly: Anticancer activity against human MGC-803 cells assessed as inhibition of cell growth incubated for 48 hrs by MTT assay. The following applies: MGC-803, 48 h. It counts as functional, cell-based. In general terms: Tetrazolium assays rely on reduction of a dye to a coloured formazan, in cell work by metabolically active cells.
For data set [4], the system named is HepG2. Put plainly: Anticancer activity against human HepG2 cells assessed as inhibition of cell growth incubated for 48 hrs by MTT assay. Format: functional, cell-based. The following applies: HepG2, 48 h.
For data set [5], the system named is T-24. The data set can be described thus: Anticancer activity against human T-24 cells assessed as inhibition of cell growth incubated for 48 hrs by MTT assay. The note with it: T-24, 48 h. Format: functional, cell-based.

SMILES strings stand for the structures. pIC50: −log10 of the molar value. Where a name gives a salt, the structure may show the parent alone.

By pIC50 is commonly meant −log10 of the IC50, conventionally taken in molar units. The IC50 is the concentration that inhibits the measured activity by half. Regarding `COc1ccc(N2CC(Cn3cc(COC(=O)[C@]4(C)CCC[C@]5(C)c6ccc(C(C)C)cc6CC[C@@H]45)nn3)OC2=O)cc1` (stereo not given in full), the pIC50 was 5.11 in data set [1], 5.15 in data set [3], 4.51 in data set [4] and 4.73 in data set [5]. For the same compound, the IC50 at 48 h in data set [2] is 31.1 µM.

As to `CC(C)c1ccc2c(c1)CC[C@H]1[C@](C)(C(=O)OCc3cn(CC4CN(c5ccccc5[N+](=O)[O-])C(=O)O4)nn3)CCC[C@]21C` (stereo not given in full), the pIC50 in data set [1] was 4.82; in data set [3], 4.61; in data set [4], 4.11; in data set [5] it was 4.56. In addition, in data set [2], the IC50 at 48 h came to 76.4 µM.

`Cc1cccc(N2CC(Cn3cc(COC(=O)[C@]4(C)CCC[C@]5(C)c6ccc(C(C)C)cc6CC[C@@H]45)nn3)OC2=O)c1` (stereo not given in full): the pIC50 in data set [1] was 4.23; in data set [3], 4.61; in data set [4], 4.63; in data set [5] it was 4.35. The IC50 at 48 h in data set [2] was determined as 51.5 µM.

As to `CC(C)c1ccc2c(c1)CC[C@H]1[C@](C)(C(=O)OCc3cn(CC4CN(c5ccccc5)C(=O)O4)nn3)CCC[C@]21C` (stereo not given in full), the pIC50 in data set [1] was 4.44; in data set [3], 4.89; in data set [4], 4.74; in data set [5], < 4.00. In data set [2], the IC50 at 48 h came to 20.8 µM.

On to `Cc1ccc(N2CC(Cn3cc(COC(=O)[C@]4(C)CCC[C@]5(C)c6ccc(C(C)C)cc6CC[C@@H]45)nn3)OC2=O)cc1` (stereo not given in full), for which the pIC50 in data set [1] is 5.58; in data set [3] it was 4.96; in data set [4], 4.57; in data set [5], < 4.00. Besides, the 50% inhibitory concentration (IC50) at 48 h in data set [2] is 71.7 µM.

`CC(C)c1ccc2c(c1)CC[C@H]1[C@](C)(C(=O)OCc3cn(CC4CN(c5cccc(Cl)c5)C(=O)O4)nn3)CCC[C@]21C` (stereo not given in full): the pIC50 was 5.16 in data set [1], 4.75 in data set [3], 4.32 in data set [4] and < 4.00 in data set [5]. Also, the IC50 at 48 h in data set [2] was 23.9 µM.

With `CC(C)c1ccc2c(c1)CC[C@H]1[C@](C)(C(=O)OCc3cn(CC4CN(c5ccc(Cl)cc5)C(=O)O4)nn3)CCC[C@]21C` (stereo not given in full), the pIC50 in data set [1] was 4.61; in data set [3] it was 4.79; in data set [4] it was 4.74; in data set [5], 4.44. Besides, in data set [2], the IC50 at 48 h is 24.3 µM.

With `CC(C)c1ccc2c(c1)CC[C@H]1[C@](C)(C(=O)OCc3cn(CC4CN(c5ccccc5Br)C(=O)O4)nn3)CCC[C@]21C` (stereo not given in full), the pIC50 in data set [1] is 4.51; in data set [3], 5.19; in data set [4] it was 4.17; in data set [5], 5.02. Besides, in data set [2], the IC50 at 48 h worked out at 20.3 µM.

On to `CC(C)c1ccc2c(c1)CC[C@H]1[C@](C)(C(=O)OCc3cn(CC4CN(c5ccccc5Cl)C(=O)O4)nn3)CCC[C@]21C` (stereo not given in full), for which the pIC50 is 4.85 in data set [1], 4.96 in data set [3], 4.87 in data set [4] and 4.15 in data set [5]. Moreover, in data set [2], the IC50 at 48 h is 21.4 µM.

Consider `CC(C)c1ccc2c(c1)CC[C@H]1[C@](C)(C(=O)OCc3cn(CC4CN(c5ccc(F)c(F)c5)C(=O)O4)nn3)CCC[C@]21C` (stereo not given in full), for which the pIC50 was 5.03 in data set [1], 4.76 in data set [3], 4.50 in data set [4] and 4.58 in data set [5]. Moreover, in data set [2], the IC50 at 48 h is 23.4 µM.

Regarding `CC(C)c1ccc2c(c1)CC[C@H]1[C@](C)(C(=O)OCc3cn(CC4CN(c5ccc(N6CCOCC6)c(F)c5)C(=O)O4)nn3)CCC[C@]21C` (stereo not given in full), the pIC50 is 4.44 in data set [1], 4.58 in data set [3], 4.54 in data set [4] and 4.20 in data set [5]. The IC50 at 48 h in data set [2] was > 100 µM.

Take `CC(C)c1ccc2c(c1)CC[C@H]1[C@](C)(C(=O)OCc3cn(CC4CN(c5ccccc5F)C(=O)O4)nn3)CCC[C@]21C` (stereo not given in full): the pIC50 in data set [1] was 4.78; in data set [3] it was 4.69; in data set [4] it was 4.70; in data set [5] it was < 4.00. Besides, the IC50 at 48 h in data set [2] is 48.2 µM.

Take `CC(C)c1ccc2c(c1)CC[C@H]1[C@](C)(C(=O)OCc3cn(CC4CN(c5cccc(F)c5)C(=O)O4)nn3)CCC[C@]21C` (stereo not given in full): the pIC50 in data set [1] was 4.48; in data set [3], 4.59; in data set [4], 4.61; in data set [5] it was 4.21. Further, the IC50 at 48 h in data set [2] was determined as 29.1 µM.

For `COc1cc(N2CC(Cn3cc(COC(=O)[C@]4(C)CCC[C@]5(C)c6ccc(C(C)C)cc6CC[C@@H]45)nn3)OC2=O)cc(OC)c1OC` (stereo not given in full), the pIC50 in data set [1] was 4.78; in data set [3], 4.61; in data set [4] it was 4.49; in data set [5] it was 4.91. Further, the IC50 at 48 h in data set [2] came out at 22.7 µM.

Take `CC(C)c1ccc2c(c1)CC[C@H]1[C@](C)(C(=O)OCc3cn(CC4CN(c5ccc(N6CCOCC6)cc5)C(=O)O4)nn3)CCC[C@]21C` (stereo not given in full): the pIC50 in data set [1] was 4.66; in data set [3], 4.65; in data set [4], 4.62; in data set [5], 4.15. In data set [2], the IC50 at 48 h was 21.4 µM.

`CC(C)c1ccc2c(c1)CC[C@H]1[C@](C)(C(=O)OCc3cn(CC4CN(c5cccc([N+](=O)[O-])c5)C(=O)O4)nn3)CCC[C@]21C` (stereo not given in full): the pIC50 was 4.51 in data set [1], 4.67 in data set [3], 4.89 in data set [4] and < 4.00 in data set [5]. Moreover, in data set [2], the IC50 at 48 h turned out to be 25.9 µM.

With `CC(C)c1ccc2c(c1)CC[C@H]1[C@](C)(C(=O)OCc3cn(CC4CN(c5ccc(F)cc5)C(=O)O4)nn3)CCC[C@]21C` (stereo not given in full), the pIC50 in data set [1] was 4.33; in data set [3], 4.90; in data set [4], 4.34; in data set [5] it was 4.26. Moreover, the IC50 at 48 h in data set [2] was 41.6 µM.

With `COc1cccc2c1C(=O)c1c(O)c3c(c(O)c1C2=O)C[C@@](O)(C(=O)CO)C[C@@H]3O[C@H]1C[C@H](N)[C@H](O)[C@H](C)O1` [DOXORUBICIN HYDROCHLORIDE], the pIC50 was 6.11 in data set [1], 5.62 in data set [3], 5.46 in data set [4] and 5.75 in data set [5]. Further, in data set [2], the IC50 at 48 h is 23.5 µM.

For `CC(C)c1ccc2c(c1)CC[C@H]1[C@](C)(C(=O)OCc3cn(CC4CN(c5cccc(Br)c5)C(=O)O4)nn3)CCC[C@]21C` (stereo not given in full), the pIC50 is 4.69 in data set [1], 4.66 in data set [3], 4.90 in data set [4] and 4.37 in data set [5]. In data set [2], the IC50 at 48 h stood at 47.6 µM.

With `Cc1ccccc1N1CC(Cn2cc(COC(=O)[C@]3(C)CCC[C@]4(C)c5ccc(C(C)C)cc5CC[C@@H]34)nn2)OC1=O` (stereo not given in full), the pIC50 is 5.19 in data set [1], 4.90 in data set [3], 4.81 in data set [4] and 4.77 in data set [5]. The IC50 at 48 h in data set [2] is 67.3 µM.

As to `CC(C)c1ccc2c(c1)CC[C@H]1[C@](C)(C(=O)O)CCC[C@]21C` [DEHYDROABIETIC ACID], the pIC50 was 4.52 in data set [1], < 4.00 in data set [3], 4.09 in data set [4] and < 4.00 in data set [5]. In addition, the IC50 at 48 h in data set [2] is > 100 µM.

For the origin of these results see ChEMBL document CHEMBL5376026, “Design, synthesis, and antiproliferative evaluation of novel dehydroabietic acid-1,2,3-triazole-oxazolidinone hybrids” (RSC Med Chem, 2024).
